Laboratory results taken from patent US12545643B2, “3,5-diaminobenzoic acid compound, and Pin1 inhibitor and therapeutic agent for inflammatory diseases using same” (Amenis Bioscience, Inc., priority 2020, dated 2026).

Tests used:
SARS-CoV-2 = SARS-CoV-2 proliferation suppression study (nucleocapsid Western blot in VeroE6/TMPRSS2 cells); assay type: cell-based; details: for inhibition at 20 µM: Severe acute respiratory syndrome coronavirus 2, 20 μM, MOI 10, lysate 8 hours after infection, read-out: Inhibition rate (SARS-CoV-2 nucleocapsid band area)
Pin1 [1] = biological target: T1, Pin1 (Homo sapiens, UniProt Q13526); assay: Cell-free assay of peptidylprolyl isomerase activity (absorbance at 330 nm, substrate Suc-Ala-Glu-Pro-Phe-pNA); assay type: biochemical; details: compound 10 μM, Pin1 5 nM, substrate peptide 60 μM, 10° C.; read-out: Pin1 inhibition activity Cell-free assay (inhibition ratio)
Description: For some compounds synthesized in Example 1, the inhibitory activity against the function of Pin1 was measured by a cell-free assay based on the method by Janowski et al. (AnalyticalBiochemistry, 1997, Vol. 252, Issue 2, pp. 299-307) because there is an assay measuring peptidylprolylisomerase activity without cells (cell-free).
Briefly, an assay buffer (containing 35 mM HEPES, pH 7.8, 50 μM DTT and 0.0025% NP40) was equilibrated to 10° C. in a quartz cell with stirring function. To this solution was added the compound dissolved in DMSO (10 μM) and then UV spectrum of the resulting solution was immediately measured. Then Pin1 (final concentration of 5 nM) was added to the solution. The reaction was initiated by adding a substrate peptide (Suc-Ala-Glu-Pro-Phe-pNA) dissolved in 0.5 M LiCl solution in trifluoroethanol (final concentration of 60 μM). After reaction was initiated, the change of absorbance at 330 nm was measured for 5 minutes. The resultant reaction curve was fitted to a first order decay model to calculate the reaction rate. The catalytic reaction rate was calculated by subtracting the background rate from the reaction rate. The inhibition ratio (%) was calculated from the catalytic reaction rates in the presence and absence of the compound. The higher inhibition ratio means the higher inhibitory activity against Pin1 function.

Pin1 [2] = biological target: T1, Pin1; assay: Cell-based assay of Pin1 inhibition (AMPK phosphorylation level as index, Western blot); set-up: endogenous in cells; host or cells: 293T cells; key: +++: a higher level of AMPK phosphorylation is promoted, as compared with C1; ++: a similar level of AMPK phosphorylation is promoted, as compared with C1; +: a lower level of AMPK phosphorylation is promoted, as compared with C1; −: no or almost no promotion is found in AMPK phosphorylation; details: 293T cells, compound at 50 μM, 10 mM 2-DG, pAMPK level compared with known Pin1 inhibitor C1
Description: To evaluate the inhibitory activity of each compound synthesized in Example 1 against the function of Pin1, a cell-based assay was performed according to the method previously developed by the inventors (Yusuke Nakatsu et al., Journal of Biological Chemistry, 2015, Vol. 290, No. 40, pp. 24255-24266), in which the phosphorylation level of AMPK (AMP-activated protein kinase), a protein whose phosphorylation is suppressed by Pin1, was examined as an index.
Briefly, 293T cells were plated on a collagen-coated 24-well plate. Forty-eight hours later, each compound synthesized in the preceding example (at 50 μM) was added to the plate, and the plate was left to stand in an incubator for 30 minutes. Subsequently, 10 mM 2-DG was added to the plate, and one hour later, each sample was collected with a buffer containing mercaptoethanol and SDS.
SDS-PAGE and blotting were performed, and blocking was then performed with 3% BSA for 1 hour, according to conventional protocols. Subsequently, a pAMPK antibody (Cell Signaling; diluted 1:2000 in Can Get Signal Solution 1, Toyobo) as a primary antibody, and an HRP-linked anti rabbit IgG (GE Healthcare; diluted 1:4000 in Can Get Signal Solution 2, Toyobo) as a secondary antibody were allowed to react at ambient temperature for 1 hour prior to detection.
The inhibitory activity against the function of Pin1 was evaluated as indicated below by comparing the inhibition levels between each compound and a known Pin1 inhibitor, C1 ((R)-2-(5-(4-methoxyphenyl)-2-methylfuran-3-carboxamido)-3-(naphthalene-6-yl) propanoic acid):
(+++): a higher level of AMPK phosphorylation is promoted, as compared with C1;
(++): a similar level of AMPK phosphorylation is promoted, as compared with C1;
(+): a lower level of AMPK phosphorylation is promoted, as compared with C1;
(−): no or almost no promotion is found in AMPK phosphorylation.

[3] = system: non-alcoholic steatohepatitis (NASH) model mice; assay: NASH treatment study in HFD-fed NASH model mice; assay type: in vivo; details: 5 mg/kg/day orally three times a week, 8 weeks
Description: Animal experiments were performed using non-alcoholic steatohepatitis (NASH) model mice to test the compounds according to the present invention for the therapeutic effect on NASH. NASH model mice (hereinafter referred to as “NASH mice”) were produced by feeding a high-fat and high-cholesterol diet containing palm oil (HFD) to individual 8-week-old male laboratory mice for 8 weeks. The mice were divided into groups during 8 weeks of the HFD-feeding period, and animal experiments were performed on a group of mice to which a compound according to the present invention (H-686) was administered orally at a dose of 5 mg/kg/day three times a week, and a group of mice to which nothing was administered. In addition, a normal diet was given to individual 8-week-old male laboratory mice for 8 weeks to prepare control mice. FIGS. 1 (A) and 1 (B) show the results of measurements of body weight and liver weight of these mice respectively. FIGS. 2 (A) and 2 (B) show the results of measurements of blood AST (GOT) concentration and blood ALT (GPT) concentration. respectively. Then FIGS. 3 (A) and 3 (B) show the results of measurements of mRNA expression levels of Colla1 (collagen, type I, alpha 1 chain) and Colla2 (collagen, type I, alpha 2 chain), respectively.

NASH-induced mice = details: cited from earlier work

T1 sequence (Q13526 whole entry): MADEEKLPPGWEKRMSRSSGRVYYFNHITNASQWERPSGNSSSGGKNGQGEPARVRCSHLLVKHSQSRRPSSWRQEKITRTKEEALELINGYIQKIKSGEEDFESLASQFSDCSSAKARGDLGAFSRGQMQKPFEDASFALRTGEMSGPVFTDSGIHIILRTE

With `O=C(COc1ccccn1)Nc1cc(NC(=O)n2c3ccccc3c3ccccc32)cc(C(=O)O)c1` [Compound H-763] the inhibition at 20 µM (SARS-CoV-2) was 97%, the inhibition at 10 µM (Pin1 [1]) was 24.6% and the “Pin1 inhibition activity Cell-based assay” value (Pin1 [2]) was “−”.

With `O=C(O)c1cc(NC(=O)c2ccc3ccccc3n2)cc(NC(=O)n2c3ccccc3c3ccccc32)c1` [Compound H-688] the “suppressing effect against SARS-CoV-2 proliferation” value (SARS-CoV-2; 5 μM or 10 μM, MOI 10, 8 hours after infection, FIG. 5) was “observed to have a suppressing effect against SARS-CoV-2 proliferation”, the inhibition at 20 µM (SARS-CoV-2) was 98% and the “Pin1 inhibition activity Cell-based assay” value (Pin1 [2]) was “++”.

`O=C(CN(c1ccccc1)c1ccccc1)Nc1cc(NC(=O)c2ccc3ccccc3c2)cc(C(=O)O)c1` [Compound H-819] showed an inhibition at 20 µM (SARS-CoV-2) of 95% and an inhibition at 10 µM (Pin1 [1]) of 62%.

In the case of `COC(=O)c1cc(NC(=O)c2ccc3c(c2)OCCO3)cc(NC(=O)n2c3ccccc3c3ccccc32)c1` [Compound H-686], the “Pin1 inhibition activity Cell-based assay” value (Pin1 [2]) is reported as “++ (Hydrolysis causes conversion to H-692)”, the “body weight (weight gain)” value ([3]; FIG. 1 (A)) is reported as “weight gain in the mice given H-686 was suppressed” and the “liver weight (increase)” value ([3]; FIG. 1 (B)) is reported as “the increase in liver weight was significantly suppressed”. The “blood AST (GOT) concentration” value ([3]; FIG. 2 (A)) was “the AST value was decreased”, the “blood ALT (GPT) concentration” value ([3]; FIG. 2 (B)) was “the ALT value was decreased” and the “mRNA expression level of Colla1 (collagen, type I, alpha 1 chain)” value ([3]; FIG. 3 (A)) was “the expression level of Colla1 was suppressed”. The “mRNA expression level of Colla2 (collagen, type I, alpha 2 chain)” value ([3]; FIG. 3 (B)) was “the suppression of the expression level was observed” and the “fat accumulation in liver tissue (microscopic observation)” value ([3]; FIG. 4) was “suppressed fat accumulation”.

For `COC(=O)c1cc(NC(=O)c2cnc3ccccc3n2)cc(NC(=O)n2c3ccccc3c3ccccc32)c1` [Compound H-685], the inhibition at 20 µM (SARS-CoV-2) was 58% and the “Pin1 inhibition activity Cell-based assay” value (Pin1 [2]) was “+”.

For `O=C(CN(c1ccccc1)c1ccccc1)Nc1cc(NC(=O)c2ccc3ccccc3n2)cc(C(=O)O)c1` [Compound H-821], the inhibition at 20 µM (SARS-CoV-2) was 95% and the inhibition at 10 µM (Pin1 [1]) was 94.4%.

With `COC(=O)c1cc(NC(=O)c2ccc3ccccc3n2)cc(NC(=O)n2c3ccccc3c3ccccc32)c1` [Compound H-684] the inhibition at 20 µM (SARS-CoV-2) was 66% and the “Pin1 inhibition activity Cell-based assay” value (Pin1 [2]) was “++ (Hydrolysis causes conversion to H-688)”.

With `COC(=O)c1cc(NC(=O)c2cccnc2)cc(NC(=O)n2c3ccccc3c3ccccc32)c1` [Compound H-680] the inhibition at 20 µM (SARS-CoV-2) was 53% and the “Pin1 inhibition activity Cell-based assay” value (Pin1 [2]) was “− (Hydrolysis causes conversion to H-682)”.

With `O=C(Nc1cc(NC(=O)c2ccc3ccccc3c2)cc(C(=O)O)c1)Nc1cccc2ccccc12` [Compound H-613] the inhibition at 10 µM (Pin1 [1]) was 38% and the “Pin1 inhibition activity Cell-based assay” value (Pin1 [2]) was “+ to ++”.

For `O=C1C=CC(=O)c2c(O)cccc21` [Juglone], the “development of NASH” value (NASH-induced mice) is given as “ameliorates the development of NASH”.

With `COC(=O)c1cc(NC(=O)COc2ccccn2)cc(NC(=O)n2c3ccccc3c3ccccc32)c1` [Compound H-762] the inhibition at 20 µM (SARS-CoV-2) was 83% and the “Pin1 inhibition activity Cell-based assay” value (Pin1 [2]) was “− (Hydrolysis causes conversion to H-763)”.
